Reference: the supplement of paper PMC6045584
± gives the standard deviation of the averaged measurements.

Tests used:
[1] = compound: CC1(C)CC(=O)c2c(C(F)(F)F)nn(-c3ccc(C(N)=O)c(N[C@H]4CC[C@H](OC(=O)CN)CC4)c3)c2C1 [SNX-5422]; assay: surviving fraction relative to DMSO-only wells; higher = less growth inhibition; details: exposure time: 5 days
Outline: (§1)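 In 384-well plates, 250–500 log-phase tumour cells per well were given 24 hours before five days of continuous exposure to inhibitors at 0.5, 1, 5, 10, 50, 100, 500 and 1000 nM. Surviving fraction is luminescence from CellTiter-Glo, normalised to the median of wells containing DMSO alone. Reading took place after 10 minutes at room temperature.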

[2] = compound: CCCCCCCCCCCCCCCC(=O)Nc1ccn([C@@H]2O[C@H](CO)[C@@H](O)[C@@H]2C#N)c(=O)n1 [SAPACITABINE]; assay: as above; details: exposure time: 5 days
Outline: as §1

| Test System | surviving fraction ([1]; 0.5 nM) | surviving fraction ([1]; 1 nM) | surviving fraction ([1]; 5 nM) | surviving fraction ([1]; 10 nM) | surviving fraction ([1]; 50 nM) | surviving fraction ([1]; 100 nM) | surviving fraction ([1]; 500 nM) | surviving fraction ([1]; 1000 nM) | surviving fraction ([2]; 0.5 nM) | surviving fraction ([2]; 1 nM) | surviving fraction ([2]; 5 nM) | surviving fraction ([2]; 10 nM) | surviving fraction ([2]; 50 nM) | surviving fraction ([2]; 100 nM) | surviving fraction ([2]; 500 nM) | surviving fraction ([2]; 1000 nM) |
| --- | --- | --- | --- | --- | --- | --- | --- | --- | --- | --- | --- | --- | --- | --- | --- | --- |
| HCT15 LARGE INTESTINE | 1.05 ± 0.018 | 1.03 ± 0.029 | 1.06 ± 0.051 | 1.09 ± 0.022 | 0.77 ± 0.12 | 0.303 ± 0.03 | 0.0797 ± 0.0015 | 0.074 ± 0.009 | 0.76 ± 0.048 | 0.693 ± 0.056 | 0.713 ± 0.064 | 0.298 ± 0.063 | 0.458 ± 0.074 | 0.143 ± 0.021 | 0.141 ± 0.013 | 0.0447 ± 0.0085 |
| MDAMB436 BREAST | 0.91 ± 0.056 | 0.873 ± 0.066 | 0.892 ± 0.044 | 0.903 ± 0.12 | 0.471 ± 0.016 | 0.305 ± 0.0098 | 0.316 ± 0.013 | 0.326 ± 0.011 | 0.861 ± 0.07 | 0.795 ± 0.08 | 0.75 ± 0.074 | 0.719 ± 0.075 | 0.561 ± 0.029 | 0.497 ± 0.053 | 0.445 ± 0.049 | 0.352 ± 0.013 |
| HUO3N1 BONE | 0.99 ± 0.02 | 1.03 ± 0.021 | 1.07 ± 0.032 | 1.1 ± 0.06 | 0.767 ± 0.023 | 0.503 ± 0.026 | 0.391 ± 0.02 | 0.319 ± 0.0095 | 0.915 ± 0.032 | 0.908 ± 0.036 | 0.931 ± 0.037 | 0.935 ± 0.024 | 0.886 ± 0.056 | 0.766 ± 0.056 | 0.528 ± 0.012 | 0.438 ± 0.019 |
| MDAMB134 BREAST | 0.902 ± 0.096 | 1.17 ± 0.23 | 0.892 ± 0.26 | 0.956 ± 0.052 | 0.789 ± 0.098 | 0.884 ± 0.036 | 0.543 ± 0.0057 | 0.54 ± 0.12 | 0.689 ± 0.09 | 0.627 ± 0.083 | 0.65 ± 0.046 | 0.7515 ± 0.0035 | 0.785 ± 0.036 | 0.821 ± 0.11 | 0.817 ± 0.058 | 0.916 ± 0.054 |
| JURKAT HAEMATOPOIETIC AND LYMPHOID TISSUE | 1.06 ± 0.014 | 1.05 ± 0.02 | 0.973 ± 0.082 | 0.942 ± 0.026 | 0.094 ± 0.0027 | 0.0437 ± 0.00058 | 0.0387 ± 0.0023 | 0.0443 ± 0.0011 | 0.944 ± 0.031 | 0.973 ± 0.03 | 0.52 ± 0.0059 | 0.245 ± 0.008 | 0.078 ± 0.0036 | 0.034 ± 0.001 | 0.0213 ± 0.00058 | 0.023 |
| CADOES1 SOFT TISSUE | 0.975 ± 0.13 | 0.967 ± 0.089 | 1.07 ± 0.04 | 0.943 ± 0.11 | 0.365 ± 0.064 | 0.122 ± 0.02 | 0.061 ± 0.0056 | 0.0547 ± 0.00058 | 1.04 ± 0.053 | 1.03 ± 0.022 | 0.915 ± 0.11 | 0.857 ± 0.074 | 0.553 ± 0.075 | 0.209 ± 0.066 | 0.0497 ± 0.0072 | 0.0437 ± 0.0035 |
| SJSA1 BONE | 1.06 ± 0.041 | 1.02 ± 0.051 | 1.12 ± 0.088 | 1.14 ± 0.034 | 0.484 ± 0.03 | 0.177 ± 0.0095 | 0.0583 ± 0.0035 | 0.0523 ± 0.0015 | 1.24 ± 0.072 | 1.18 ± 0.095 | 1.19 ± 0.25 | 1.21 ± 0.066 | 1.65 ± 0.058 | 1.74 ± 0.087 | 1.65 ± 0.1 | 1.75 ± 0.11 |
| HCC70 BREAST | 1.07 ± 0.05 | 1.142 ± 0.0055 | 1.19 ± 0.043 | 1.17 ± 0.048 | 0.668 ± 0.11 | 0.133 ± 0.023 | 0.127 ± 0.021 | 0.113 ± 0.016 | 0.968 ± 0.09 | 0.935 ± 0.058 | 1.03 ± 0.036 | 0.97 ± 0.023 | 0.746 ± 0.065 | 0.635 ± 0.0092 | 0.4057 ± 0.0035 | 0.332 ± 0.028 |
| SYO1 SYNOVIAL | 1.03 ± 0.031 | 0.993 ± 0.089 | 1.02 ± 0.016 | 0.846 ± 0.059 | 0.122 ± 0.049 | 0.0776 ± 0.021 | 0.0327 ± 0.0032 | 0.0335 ± 0.0013 | 0.83 ± 0.07 | 0.689 ± 0.019 | 0.737 ± 0.016 | 0.343 ± 0.029 | 0.48 ± 0.022 | 0.269 ± 0.0028 | 0.0989 ± 0.0067 | 0.0679 ± 0.0022 |
| VCAP PROSTATE | 1.13 ± 0.051 | 1.03 ± 0.057 | 1.08 ± 0.081 | 1.15 ± 0.086 | 0.279 ± 0.024 | 0.141 ± 0.0038 | 0.165 ± 0.0055 | 0.161 ± 0.013 | 0.892 ± 0.048 | 0.935 ± 0.07 | 0.959 ± 0.085 | 0.91 ± 0.055 | 1.06 ± 0.038 | 1.03 ± 0.1 | 0.95 ± 0.015 | 0.791 ± 0.1 |
| MDAMB453 BREAST | 1.02 ± 0.034 | 1.08 ± 0.036 | 1.08 ± 0.028 | 1.08 ± 0.037 | 0.458 ± 0.055 | 0.254 ± 0.016 | 0.0493 ± 0.013 | 0.0633 ± 0.017 | 0.988 ± 0.053 | 0.968 ± 0.053 | 1 ± 0.058 | 1.03 ± 0.07 | 1.01 ± 0.022 | 1.01 ± 0.067 | 0.641 ± 0.033 | 0.407 ± 0.03 |
